Laboratory results as given in patent US20240277797A1, “METHOD FOR TREATING OR PREVENTING NEOVASCULAR EYE DISEASE” (Suzhou Mingren Pharmaceutical Biotechnology Co., Ltd., priority 2022, published 2024).
Where a SMILES comes first, the peptide text is derived from it.

B1: Ranibizumab (antibody, chains of the INN, looked up, V domains shown)
VH: EVQLVESGGGLVQPGGSLRLSCAASGYDFTHYGMNWVRQAPGKGLEWVGWINTYTGEPTYAADFKRRFTFSLDTSKSTAYLQMNSLRAEDTAVYYCAKYPYYYGTSHWYFDVWGQGTLVTVSS
VL: DIQLTQSPSSLSASVGDRVTITCSASQDISNYLNWYQQKPGKAPKVLIYFTSSLHSGVPSRFSGSGSGTDFTLTISSLQPEDFATYYCQQYSTVPWTFGQGTKVEIK
modifications: Fab
notes: anti-VEGF antibody drug used as positive control

Tests used:
[1] = Solubility of the synthesized peptides; format: physicochemical
Experimental: Peptide JP1 and others were synthesized by GL Biochem (Shanghai) Ltd. and Hybio Pharmaceutical Co., Ltd. (Shenzhen, China, under standard GMP conditions. Purity >98%, water-soluble. Freeze dried powder is stored for a long time at −20° C.

CNV lesions = settings: mouse, in vivo, ip
Experimental: One week after laser induction, mice with choroidal neovascularization were randomly divided into two groups (10 mice per group), and injected intraperitoneally with 5 mg of FITC-JP1 and 0.99 mg of FITC 100 uL (both groups were injected with equal amounts of FITC intraperitoneally), respectively. The intensity of FITC in the living retina was determined using the FFA method (n=5/group). To evaluate the accumulation of FITC in CNV lesions, mice were euthanized at 1, 3, 8, 24, and 48 h after intraperitoneal injection of FITC-JP1 or FITC, respectively. Then, choroidal spreads were observed by fluorescence microscopy.

[2] = system: streptozotocin (STZ)-induced diabetes mouse model; test: Streptozotocin-induced diabetes mouse model: retinal vascular density and leakage; format: in vivo; settings: STZ diabetic mice, intraocular injection once a week, 4 times; compared to normal mice of the same age
Experimental: C57BL/6 mice (male, 3-5 weeks old) were administered with intraperitoneal injection of streptozotocin (STZ) (7.5 mg/mL; S-0130, Sigma Aldrich, St. Louis, MO, USA), fresh dissolved Na Citrate (CAM) buffer (pH: 4.5-4.7; S4641, Sigma) at a dose of 50 mg/kg, once daily, for 5 consecutive days. After one week, blood sugar ≥300 mg/dL was regarded as the onset of diabetes. Only mice with sustained high sugar for 3 weeks were used for subsequent experiments. […] The blood glucose of mice was measured every month to confirm the status of diabetes. Two months after the onset of diabetes, the mice were randomly divided into four groups with 10 mice in each group. […]
After the mice were anesthetized, 1 mL of PBS containing 40 mg/mL fluorescein isothiocyanate-glucan was perfused into the left ventricle (average mol wt: 2×10^6, Sigma, St Louis, MO, USA). […] Stretched preparation was made, and observe the flat bracket using a fluorescence microscope and take photos. The vascular density of capillary networks was analyzed using Angio Tool image analysis software. […]
Evans blue (45 mg/kg) was injected through the tail vein of mice for more than 10 s. […] Plasma Evans blue concentration was determined by taking 100 uL of blood. […]

Molecule	solubility [1]	accumulation of FITC at CNV lesions (retinal choroidal plain films) (CNV lesions)	retinal vascular density [2]
N=C(N)NCCC[C@H](NC(=O)[C@H](Cc1ccccc1)NC(=O)[C@H](CCCNC(=N)N)NC(=O)[C@H](CC(=O)O)NC(=O)[C@H](COP(=O)(O)O)NC(=O)CNC(=O)[C@@H]1CCCN1C(=O)[C@@H](N)Cc1ccccc1)C(=O)NCC(=O)N[C@@H](CC(=O)O)C(=O)O [JP1] (HELM PEPTIDE1{F.P.G.[O=C([C@H](COP(=O)(O)O)N[*:1])[*:2]].D.R.F.R.G.D}$$$$V2.0; N-terminus and C-terminus assumed)	water-soluble	enhanced the accumulation of FITC at CNV lesions	
B1			no significant decrease in retinal vascular density
